Experimental data as given in PMC8381248 (Frontiers in Pharmacology, 2021).

Columns and labels:
[1] = Plasma protein binding rate, rapid equilibrium dialysis, human plasma; type: in vitro ADME; conditions: 37°C
Protocol: (§1) In brief, the unbound drugs (or references) were separated from plasma (human and rat) in a 96-well plate with a semipermeable membrane through which only unbound drug can permeate. The equilibrium unit was sealed and incubated at 37°C in a mixer at 100 rpm for 4 h.
(§2) Then, 50 ng/ml of midazolam and 50 ng/ml of tolbutamide (in acetonitrile) were used as IS.
(§3) After reaching equilibrium, the concentrations of the samples in both the plasma and the buffer compartment were determined. According to the specification, the resultant supernatant was collected, properly diluted by distilled water, vortexed for 10 min, and finally analyzed using LC-MS/MS. All the samples (PDG, PINL, diclofenac, and propranolol) for detection were prepared in duplicate.
(§4) The concentrations of the samples were determined by internal standard methods, in which the data were acquired and analyzed by Analyst 1.6.1 software station (AB Sciex Corporation, Boston, MA, United States). The equation of plasma protein binding rate is calculated as follows: Free drug rate (%)=CB/CA×100% (3) Plasma protein binding rate (%)=100%−Free drug rate(%) (4) C B is the drug concentration in dialysis chamber, and C A is the drug concentration in the sample chamber.

[2] = Plasma protein binding rate, rapid equilibrium dialysis, rat plasma; type: in vitro ADME; conditions: 37°C
Protocol: as §1, §2, §3, §4

[3] = Urinary excretion study after intravenous administration; type: in vivo, Sprague-Dawley (SD) rats; conditions: IV 5 mg/kg; for excretion amount in urine: rat
Protocol: Eighteen male SD rats were housed in the barrier rodent facilities to acclimatize for a week in animal quarters, which had air conditioning and an automatically controlled photoperiod of 12 h of light daily. Rats had free access to standard chow diet and water until 12 h prior to the beginning of the experiment, at which time only water was accessed freely. The rats were randomly divided into six groups, with three rats in each group.
A series of calibration standard working solutions (20.0, 10.0, 2.0, 1.0, 0.2, 0.04, and 0.02 μg/ml) was prepared freshly by diluting the stock solution stepwise using ACN-water (70:30, v/v). […] The IS working solutions of 200 ng/ml of tolbutamide or 50 ng/ml of diclofenac sodium were prepared by dilution of the stock standard solution with acetonitrile solution. All the solutions were stored at 4°C and brought to room temperature before use.
QC samples (3, 40, 800, and 1,600 ng/ml) were prepared separately. For PDG urine samples, the calibration standards were prepared by spiking 5 μL of the appropriate standard working solutions of PDG to 95 μL blank rat urine to prepare the final urine concentration of PDG ranging from 1 ng/ml to 2000 ng/ml. QC samples (3, 40, 800, and 1,600 ng/ml) were prepared separately. […] QC samples (15, 30, 400, and 1,600 ng/ml) were prepared separately.
Urine samples were collected while the rats remained isolated in metabolic cages at intervals of 0, 2, 4, 8, 24, and 30 h after administration, and the volumes of the urine were measured. The urine samples were also stored at −20°C before tested by LC-MS/MS. For the urine calibration standards, QC urine samples, and the testing urine samples, 100 µL of the urine samples were extracted with 300 µL of methyl tert-butyl ether (MTBE) by vortex mixing for 1 min and centrifuged at 4°C for 10 min at 13,000 rpm. Then, 200 µL of the supernatant was separated and evaporated under a gentle stream of nitrogen. The residue was reconstituted with 120 µL of 30% ACN with 5 µL of IS working solution ([…]), followed by vortex mixing for 10 min.
Linear gradient elution was performed with certain portions of 10 mM ammonium acetate-water solution containing 0.1% formic acid (mobile phase A) and methanol (mobile phase B). The detailed conditions have been described in Support Materials (Supplementary Table S5).

[4] = test system: PE-constricted aortic rings; assay: Vasorelaxant effects on isolated PE-constricted aortic rings; set-up: species or system SD rats; conditions: 10^–6 M PE, n = 6
Protocol: SD rats were anesthetized by exposure to ether, and the thoracic aorta was removed and immersed in Krebs-Henseleit (K-H) buffer ([Lee et al., 2013]) at 4°C. The connective tissues and fats around the aorta were carefully removed under the microscopes, and the blood was flushed. The aorta ring was cut into four sections approximately 3 mm long and suspended in organ chambers containing K-H buffer. The endothelium was also removed by gently rubbing the lumen of the vessel with a cotton swab. The aortic rings were placed in a 5 ml organ chambers of DMT multiwire myograph system (620M, Danish Myo Technology, Denmark) and were filled with K-H buffer aerated with 95% O2 and 5% CO2 at 37°C. The aortic rings were mounted on hooks connected to a tension transducer and a displacement device.
The initial vessel tension was slowly adjusted to 15 mN and maintained balanced for 60 min. The buffer was renewed once every 15 min. After equilibration, the vessel viability was pre-constricted by exposing the aortic rings to 60 mM KCl for 10 min ([Ding et al., 2019]). Then, the K-H buffer was continuously renewed to elute and restore the initial tension of the vascular ring to assay the vascular activity. The pre-treated operation was repeated two times, where the constriction amplitude after each KCl stimulation to reach the previous constriction amplitude was taken as the criterion, before the experiment continued. Subsequently, 10^–6 M PE was added to contract the blood vessel. After the constriction was stable, different concentrations of Ach (10^−9–10^–5 M) were used to dilate the vessels. Then, the vasorelaxation degree could be calculated with different Ach concentrations, as the following equation: Vasorelaxation degree (%)=Maxium constriction tension induced by PE−Minium diastolic tension induced by Ach/Maxium constriction tension induced by PE−Resting tension×100% (10) When the vasorelaxation degree corresponding to Ach (10^–5 M) is greater than 80%, the vascular endothelium is considered intact and functional. The endothelium is considered to be removed with a vasorelaxation degree of less than 20% ([Lee et al., 2013]). Endothelium-intact and endothelium-denuded aortic rings from the same aorta were tested.
After equilibration, the endothelium-intact and the endothelium-denuded aortic rings were pre-constricted with 10^–6 M PE in the K-H buffer system.
After equilibration, the endothelium-intact aortic rings were pre-constricted with 10^–6 M PE in the K-H buffer system. […] Then, the corresponding vasoconstrictive responses were examined and recorded.
In the vasorelaxant effects investigations, all the data are presented as mean ± SEM. Statistical analysis was performed using two-way ANOVA followed by Fisher’s least significant difference (LSD) test. Values at p < 0.05 were considered statistically significant.

COc1cc(C2OCC3C(c4ccc(OC5OC(CO)C(O)C(O)C5O)c(OC)c4)OCC23)ccc1OC1OC(CO)C(O)C(O)C1O (single isomer, unassigned; (+)) [PDG, (+)-1-pinoresinol 4,4′-di-O-β-D-glucopyranoside]
fraction unbound at 4 h, 10 µM [1]: 0.548 | fraction unbound at 4 h, 10 µM [2]: 0.623 | cumulative urinary excretion, % of the dose ([3]; rat urine, for 30 h): approximately 78.24% | Cumulative Excretion Amount ([3]; rat urine, within 30 h, n = 3): 807,789.5 ± 65,828.8 ng | excretion amount in urine ([3]; 0–2 h, n = 3): 503,669.8 ± 292,869.4 ng | excretion amount in urine ([3]; 2–4 h, n = 3): 274,878.3 ± 236,625.8 ng | excretion amount in urine ([3]; 4–8 h, n = 3): 989.1 ± 1,053.6 ng | excretion amount in urine ([3]; 8–24 h, n = 3): 2,596.9 ± 1776.4 ng | excretion amount in urine ([3]; 24–30 h, n = 3): 245.1 ± 173.0 ng | excretion amount in urine ([3]; Wash, n = 3): 25,410.3 ± 5,874.3 ng | vasorelaxant effect on PE-constricted aortic rings ([4]; increasing concentration 25–200 μM): concentration-dependent vasorelaxation | vasorelaxation degree, endothelium-denuded versus endothelium-intact group ([4]; PINL difference at 50–100 μM): not statistically significant
